# Source: publication PMC3150407, “Differential Inhibitor Sensitivity between Human Kinases VRK1 and VRK2” (PLoS ONE, 2011)
# Read-outs that look alike come from different tables or passages of the source.
# Key:
# GST-VRK1 [1] = molecular target: T1, GST-VRK1 (Homo sapiens, UniProt Q99986); test: In vitro kinase assay, GST-VRK1 phosphorylation of histone H3; type: biochemical; settings: 5 µM ATP; average of three experiments, ± standard deviation; No inhibition is lack of effect at 100 µM
# T1 construct: made in house
# T1 sequence (Q99986 1-396): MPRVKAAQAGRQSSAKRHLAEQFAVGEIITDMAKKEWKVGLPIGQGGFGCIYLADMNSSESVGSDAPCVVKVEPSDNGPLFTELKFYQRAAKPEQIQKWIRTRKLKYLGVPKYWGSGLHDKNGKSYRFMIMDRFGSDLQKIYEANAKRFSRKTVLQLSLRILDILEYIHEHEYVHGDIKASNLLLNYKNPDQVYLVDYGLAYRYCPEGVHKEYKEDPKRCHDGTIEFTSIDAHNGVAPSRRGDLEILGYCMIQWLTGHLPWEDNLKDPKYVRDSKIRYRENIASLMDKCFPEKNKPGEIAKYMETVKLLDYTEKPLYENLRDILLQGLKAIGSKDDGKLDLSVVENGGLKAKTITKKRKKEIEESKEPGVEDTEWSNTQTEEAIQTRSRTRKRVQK
# human VRK1 = molecular target: T2, human VRK1 (Homo sapiens, UniProt Q99986); test: In vitro kinase assay, VRK1 kinase activity (autophosphorylation and H3 phosphorylation); type: biochemical
# T2 construct: made in house
# T2 sequence (Q99986 1-396): T1 sequence (Q99986 1-396)
# VRK2A = molecular target: T3, VRK2A (Homo sapiens, UniProt Q86Y07); test: In vitro kinase assay, VRK2A kinase activity (autophosphorylation and H3 phosphorylation); type: biochemical
# T3 construct: a full-length protein of 508 aminoacids (known as VRK2 and VRK2A); made in house; host or cells: E. coli BL21
# T3 sequence (Q86Y07 whole entry): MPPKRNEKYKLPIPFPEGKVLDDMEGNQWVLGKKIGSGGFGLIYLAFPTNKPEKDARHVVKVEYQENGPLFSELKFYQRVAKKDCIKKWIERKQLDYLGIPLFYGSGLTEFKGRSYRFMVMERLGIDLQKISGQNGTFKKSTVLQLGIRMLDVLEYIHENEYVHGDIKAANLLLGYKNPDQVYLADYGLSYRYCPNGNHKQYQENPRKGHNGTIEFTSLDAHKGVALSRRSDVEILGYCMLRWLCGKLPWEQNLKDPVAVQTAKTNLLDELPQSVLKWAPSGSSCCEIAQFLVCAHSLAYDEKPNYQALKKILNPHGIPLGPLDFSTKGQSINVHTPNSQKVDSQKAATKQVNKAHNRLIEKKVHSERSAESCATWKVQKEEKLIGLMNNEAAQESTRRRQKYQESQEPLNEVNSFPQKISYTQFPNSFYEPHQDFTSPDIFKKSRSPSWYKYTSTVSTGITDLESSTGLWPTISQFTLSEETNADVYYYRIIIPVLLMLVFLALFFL
# GST-VRK2A [2] = molecular target: T4, GST-VRK2A (Homo sapiens, UniProt Q86Y07); test: In vitro kinase assay, GST-VRK2A autophosphorylation; type: biochemical; settings: for IC50: read-out: IC50 (µM) GST-VRK2A Auto-phosphorylation
# T4 construct: a full-length protein of 508 aminoacids (known as VRK2 and VRK2A); made in house; host or cells: E. coli BL21
# T4 sequence (Q86Y07 whole entry): as above
# GST-VRK1 [3] = molecular target: T1, GST-VRK1; test: In vitro kinase assay, GST-VRK1 autophosphorylation; type: biochemical; settings: 5 µM ATP; average of three experiments, ± standard deviation; No inhibition is lack of effect at 100 µM
# GST-VRK2A [4] = molecular target: T4, GST-VRK2A; test: In vitro kinase assay, GST-VRK2A phosphorylation of histone H3; type: biochemical
# JNK = settings: Table S1, known target value; no reference given; read-out: Kinase target (IC50) JNK; cited from earlier work
# Cdk1 = settings: Table S1, known target value; no reference given; read-out: Kinase target (IC50) Cdk1; cited from earlier work
# Cdk1/cyclinB = settings: read-out: Fifty percent inhibition of Cdk1/cyclinB; cited from earlier work
# B-RafV600E = settings: Table S1, known target value; no reference given; read-out: Kinase target (IC50) B-RafV600E; cited from earlier work
# B-Raf = settings: Table S1, known target value; no reference given; read-out: Kinase target (IC50) B-Raf; cited from earlier work
# CDK = settings: read-out: Kinase target (IC50) CDK; Table S1, known target value; no reference given; cited from earlier work
# GSK-3β = settings: Table S1, known target value; no reference given; read-out: Kinase target (IC50) GSK3β; cited from earlier work
# Aurora C kinase = settings: Table S1, known target value; no reference given; cited from earlier work
# VRK2B = molecular target: T5, VRK2B (Homo sapiens, UniProt Q86Y07); test: In vitro kinase assay, VRK2B kinase activity; type: biochemical; settings: inhibitor 100 µM, 5 µM ATP
# T5 construct: made in house; host or cells: E. coli BL21
# T5 sequence (Q86Y07 1-397 isoform Q86Y07-2): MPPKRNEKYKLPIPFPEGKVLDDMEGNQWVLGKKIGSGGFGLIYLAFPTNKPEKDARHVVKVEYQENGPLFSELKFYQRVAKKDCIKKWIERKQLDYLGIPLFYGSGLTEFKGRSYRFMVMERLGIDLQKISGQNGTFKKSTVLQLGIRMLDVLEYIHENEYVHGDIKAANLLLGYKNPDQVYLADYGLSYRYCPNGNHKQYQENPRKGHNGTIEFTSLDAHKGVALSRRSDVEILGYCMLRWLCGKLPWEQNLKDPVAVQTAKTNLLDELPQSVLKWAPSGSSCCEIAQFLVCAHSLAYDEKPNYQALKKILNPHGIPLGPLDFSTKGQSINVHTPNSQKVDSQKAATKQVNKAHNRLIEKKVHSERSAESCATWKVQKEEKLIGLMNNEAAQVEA
# [5] = inhibitor 100 µM, 5 µM ATP, autophosphorylation and H3 phosphorylation
# [6] = 5 µM ATP, average of three experiments, ± standard deviation, No inhibition is lack of effect at 100 µM
Compound,IC50 (µM) GST-VRK1 H3 phosphorylation (GST-VRK1 [1]),Effect on VRK1 kinase activity at 100 µM inhibitor (in words) (human VRK1; [5]),Effect on VRK2 (VRK2A) kinase activity at 100 µM inhibitor (in words) (VRK2A; [5]),IC50 (GST-VRK2A [2]) [µM],IC50 (µM) GST-VRK1 Auto- phosphorylation (GST-VRK1 [3]),IC50 (GST-VRK2A [4]) [µM],further results
"Oc1c2ccccc2c2c3c(cccc13)N=N2 [SP600125, Anthra[1,9-cd]pyrazol-6(2H)-one, 1,9-pyrazoloanthrone]",No inhibition,None of them was able to induce a significant inhibition,None of them was able to induce a significant inhibition,27.6 ± 1.09,No inhibition,11.1 ± 1.21,IC50 (JNK): 0.04 µM
"O=C1Nc2ccccc2C1=Cc1c(Cl)[nH]c2ccccc12 [Cdk1 Inhibitor, 3-(2-Chloro-3-indolylmethylene)-1,3-dihydroindol-2-one]",No inhibition,–,more sensitive,11.2 ± 1.33,No inhibition,10.8 ± 1.29,"IC50 (Cdk1): 5.8 µM; IC50 (Cdk1/cyclinB): 5.8 µM; IC50 (VRK2A; 5 µM ATP, H3 phosphorylation or autophosphorylation, read-out: Concentration giving fifty percent inhibition of VRK2A activity): 4 µM"
"OCCn1cc(-c2ccc3c(c2)CCC3=NO)c(-c2ccncc2)n1 [GDC-0879, 5-[1-(2-Hydroxy-ethyl)-3-pyridin-4-yl-1H-pyrazol-4-yl]-indan-1-one oxime]",No inhibition,None of them was able to induce a significant inhibition,None of them was able to induce a significant inhibition,–,No inhibition,–,IC50 (B-RafV600E): 0.00013 µM
"CCCS(=O)(=O)Nc1ccc(F)c(C(=O)c2c[nH]c3ncc(Cl)cc23)c1F [PLX-4720, N-(3-(5-chloro-1H-pyrrolo[2,3-b]pyridine-3-carbonyl)-2,4-difluorophenyl)propane-1-sulfonamide]",No inhibition,None of them was able to induce a significant inhibition,None of them was able to induce a significant inhibition,–,No inhibition,–,IC50 (B-Raf): […]; IC50 (µM) GST-VRK2A Auto-phosphorylation (GST-VRK2A [2]; [6]): No inhibition; IC50 (µM) GST-VRK2A H3 phosphorylation (GST-VRK2A [4]; [6]): No inhibition
Indirubin-3’-monoxime,–,–,–,–,–,–,IC50 (CDK): 0.05 to 0.1 µM; Effect on VRK1 kinase activity at 100 µM inhibitor (in words) (human VRK1): little effect; Effect on VRK2 (VRK2A) kinase activity at 100 µM inhibitor (in words) (VRK2A): little effect; IC50 (GSK-3β): 0.005 to 0.05 µM
"Cc1cc(Nc2cc(N3CCN(C)CC3)nc(Sc3ccc(NC(=O)C4CC4)cc3)n2)[nH]n1 [VX-680, N-[4-[4-(4-Methylpiperazin-1-yl)-6-(3-methyl-1H-pyrazol-5-ylamino)pyrimidin-2-sulfanyl]phenyl]-cyclopropanecarboxamide]",No inhibition,without noticeable inhibitory effect,without noticeable inhibitory effect,–,No inhibition,–,IC50 (Aurora C kinase): […]; Effect on VRK2B kinase activity at 100 µM inhibitor (in words) (VRK2B): without noticeable inhibitory effect
